Source: US20260184675A1, “CHIRAL ISOMERIC SULFITE COMPOUND AND APPLICATION THEREOF” (Chengdu Hanova BioSciences Co., Ltd, priority 2024, published 2026)

What was measured:
Type in all cases: in vivo
eggs of Aleyrodidae = test: Effect on hatching of eggs of Aleyrodidae, leaf disc method; conditions: 10 ppm; for Hatching rate (%), Replicate 1 / Hatching rate (%), Replicate 2 / Hatching rate (%), Replicate 3 / Number of hatched larvae 5 days after insecticide delivery, Replicate 1 / Number of hatched larvae 5 days after insecticide delivery, Replicate 2 / Number of hatched larvae 5 days after insecticide delivery, Replicate 3: Aleyrodidae eggs; for Hatching rate (%), Replicate 1 / Hatching rate (%), Replicate 2 / Hatching rate (%), Replicate 3: 5 days after delivery; for Number of hatched larvae 5 days after insecticide delivery, Replicate 1 / Number of hatched larvae 5 days after insecticide delivery, Replicate 2 / Number of hatched larvae 5 days after insecticide delivery, Replicate 3: leaf disc
Summary of the method: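 Leaf discs carrying Aleyrodidae eggs were first examined microscopically to record a baseline egg count. They were then dipped for 10 seconds in compound solution at 10 ppm or in clear water, taken out, and incubated with humidity maintained. Five days after delivery, the number of hatched larvae was recorded to assess hatching inhibition.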

eggs of Thrips = test: Effect on hatching of eggs of Thrips, leaf disc method; conditions: 100 ppm; for Hatching rate (%): 5 days after insecticide delivery
Summary of the method: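 Egg-bearing Vicia faba leaf discs (diameter 2.0 cm, wetted filter paper beneath) were counted microscopically for baseline eggs. They were then soaked for 10 seconds in water or in test agent at 100 ppm. After moist incubation in lidded dishes, with controlled temperature and humidity and adequate indirect light, hatched larvae were counted five days post-delivery to judge hatching inhibition.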

[1] = tested on: eggs of Tetranychus urticae; test: Effect on hatching of eggs of Tetranychus urticae, leaf disc method; conditions: 5 ppm; for Hatching rate (%): 5 days after insecticide delivery
Summary of the method: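 This leaf disc test measured inhibition of Tetranychus urticae egg hatching. Eggs laid on Vicia faba discs were counted microscopically, and the discs were soaked for 10 seconds in compound at 5 ppm, with clear water as control. They were incubated under controlled temperature and humidity with strong indirect light, avoiding condensate. Hatched eggs, leaf damage and developmental abnormalities were recorded five days after delivery.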

[2] = tested on: eggs of Spodoptera litura; test: Effect on hatching of eggs of Spodoptera litura, egg piece soaking; conditions: 500 ppm; for Hatching rate (%), Replicate 1 / Hatching rate (%), Replicate 2 / Hatching rate (%), Replicate 3 / Number of unhatched larvae 4 days after insecticide delivery, Replicate 1 / Number of unhatched larvae 4 days after insecticide delivery, Replicate 2 / Number of unhatched larvae 4 days after insecticide delivery, Replicate 3: Spodoptera litura eggs; for Hatching rate (%), Replicate 1 / Hatching rate (%), Replicate 2 / Hatching rate (%), Replicate 3: 4 days after delivery; for Number of unhatched larvae 4 days after insecticide delivery, Replicate 1 / Number of unhatched larvae 4 days after insecticide delivery, Replicate 2 / Number of unhatched larvae 4 days after insecticide delivery, Replicate 3: soaked 10 minutes
Summary of the method: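 Egg pieces of about 60 eggs were soaked 10 min in test agent at 500 ppm, blotted, then held singly at 24±1 °C, 80±10% RH, 12:12 L:D. Hatched and unhatched eggs were counted on day 4 to give hatching rate and control effect; 3 replicates.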

[3] = Replicate 1, listed as 1-(R, R)
[4] = Replicate 2, listed as 1-(R, R)
[5] = Replicate 3, listed as 1-(R, R)

**Q.** With `C[C@H](COS(=O)OCCF)Oc1ccc(Cl)cc1Cl` (stereo partly drawn) [1-(R,R)] as the compound, how does the “inhibitory activity on the hatching of eggs of Aleyrodidae (in words)” value (eggs of Aleyrodidae) read?
**A.** strong inhibitory activities

**Q.** What about the “Hatching rate (%), Replicate 1” value (eggs of Aleyrodidae; listed as 1-(R, R)) of the same compound?
**A.** 0.00%

**Q.** And the “Hatching rate (%), Replicate 2” value (eggs of Aleyrodidae; listed as 1-(R, R))?
**A.** 0.00%

**Q.** What about the “Hatching rate (%), Replicate 3” value (eggs of Aleyrodidae; listed as 1-(R, R)) of the same compound?
**A.** 0.00%

**Q.** And the “Number of hatched larvae 5 days after insecticide delivery, Replicate 1” value (eggs of Aleyrodidae; listed as 1-(R, R))?
**A.** 0

**Q.** And the “Number of hatched larvae 5 days after insecticide delivery, Replicate 2” value (eggs of Aleyrodidae; listed as 1-(R, R))?
**A.** 0

**Q.** What about the “Number of hatched larvae 5 days after insecticide delivery, Replicate 3” value (eggs of Aleyrodidae; listed as 1-(R, R)) of the same compound?
**A.** 0

**Q.** What about the “inhibitory activity on the hatching of eggs of Thrips (in words)” value (eggs of Thrips) of the same compound?
**A.** strong inhibitory activities

**Q.** And the “Hatching rate (%)” value (eggs of Thrips; [3])?
**A.** 0.00%

**Q.** And the “Hatching rate (%)” value (eggs of Thrips; [4])?
**A.** 0.00%

**Q.** And the “Hatching rate (%)” value (eggs of Thrips; [5])?
**A.** 0.00%

**Q.** And the “Number of hatched larvae 5 days after insecticide delivery” value (eggs of Thrips; [3])?
**A.** 0

**Q.** And the “Number of hatched larvae 5 days after insecticide delivery” value (eggs of Thrips; [4])?
**A.** 0

**Q.** And the “Number of hatched larvae 5 days after insecticide delivery” value (eggs of Thrips; [5])?
**A.** 0

**Q.** What about the “inhibitory activity on the hatching of eggs of Tetranychus urticae (in words)” value [1] of the same compound?
**A.** strong inhibitory activities

**Q.** What about the “Hatching rate (%)” value [1, 3] of the same compound?
**A.** 0.00%

**Q.** What about the “Hatching rate (%)” value [1, 4] of the same compound?
**A.** 0.00%

**Q.** What about the “Number of hatched larvae 5 days after insecticide delivery” value [1, 3] of the same compound?
**A.** 0

**Q.** What about the “Number of hatched larvae 5 days after insecticide delivery” value [1, 4] of the same compound?
**A.** 0

**Q.** What about the “inhibitory activity on the hatching of eggs of Spodoptera litura (in words)” value [2] of the same compound?
**A.** good inhibitory activities

**Q.** What about the “Hatching rate (%), Replicate 1” value ([2]; listed as 1-(R, R)) of the same compound?
**A.** 22.39%

**Q.** What about the “Hatching rate (%), Replicate 2” value ([2]; listed as 1-(R, R)) of the same compound?
**A.** 21.05%

**Q.** And the “Hatching rate (%), Replicate 3” value ([2]; listed as 1-(R, R))?
**A.** 23.73%

**Q.** And the “Number of unhatched larvae 4 days after insecticide delivery, Replicate 1” value ([2]; listed as 1-(R, R))?
**A.** 47

**Q.** What about the “Number of unhatched larvae 4 days after insecticide delivery, Replicate 2” value ([2]; listed as 1-(R, R)) of the same compound?
**A.** 45

**Q.** And the “Number of unhatched larvae 4 days after insecticide delivery, Replicate 3” value ([2]; listed as 1-(R, R))?
**A.** 45

**Q.** `CC(COS(=O)OCCF)Oc1ccc(Cl)cc1Cl` (stereo not drawn) [Compound 1] was tested. Which “inhibitory activity on the hatching of eggs of Aleyrodidae (in words)” value (eggs of Aleyrodidae) did it give?
**A.** strong inhibitory activities

**Q.** What about the “Hatching rate (%), Replicate 1” value (eggs of Aleyrodidae) of the same compound?
**A.** 0.00%

**Q.** What about the “Hatching rate (%), Replicate 2” value (eggs of Aleyrodidae) of the same compound?
**A.** 1.50%

**Q.** And the “Hatching rate (%), Replicate 3” value (eggs of Aleyrodidae)?
**A.** 0.00%

**Q.** And the “Number of hatched larvae 5 days after insecticide delivery, Replicate 1” value (eggs of Aleyrodidae)?
**A.** 0

**Q.** What about the “Number of hatched larvae 5 days after insecticide delivery, Replicate 2” value (eggs of Aleyrodidae) of the same compound?
**A.** 2

**Q.** What about the “Number of hatched larvae 5 days after insecticide delivery, Replicate 3” value (eggs of Aleyrodidae) of the same compound?
**A.** 0

**Q.** What about the “inhibitory activity on the hatching of eggs of Thrips (in words)” value (eggs of Thrips) of the same compound?
**A.** strong inhibitory activities

**Q.** And the “Hatching rate (%)” value (eggs of Thrips; Replicate 1)?
**A.** 0.00%

**Q.** What about the “Hatching rate (%)” value (eggs of Thrips; Replicate 2) of the same compound?
**A.** 1.57%

**Q.** And the “Hatching rate (%)” value (eggs of Thrips; Replicate 3)?
**A.** 0.00%

**Q.** What about the “Number of hatched larvae 5 days after insecticide delivery” value (eggs of Thrips; Replicate 1) of the same compound?
**A.** 0

**Q.** And the “Number of hatched larvae 5 days after insecticide delivery” value (eggs of Thrips; Replicate 2)?
**A.** 2

**Q.** And the “Number of hatched larvae 5 days after insecticide delivery” value (eggs of Thrips; Replicate 3)?
**A.** 0

**Q.** And the “inhibitory activity on the hatching of eggs of Tetranychus urticae (in words)” value [1]?
**A.** strong inhibitory activities

**Q.** What about the “Hatching rate (%)” value ([1]; Replicate 1) of the same compound?
**A.** 0.94%

**Q.** And the “Hatching rate (%)” value ([1]; Replicate 2)?
**A.** 1.30%

**Q.** What about the “Number of hatched larvae 5 days after insecticide delivery” value ([1]; Replicate 1) of the same compound?
**A.** 1

**Q.** What about the “Number of hatched larvae 5 days after insecticide delivery” value ([1]; Replicate 2) of the same compound?
**A.** 1

**Q.** What about the “Hatching rate (%), Replicate 1” value [2] of the same compound?
**A.** 41.38%

**Q.** What about the “Hatching rate (%), Replicate 2” value [2] of the same compound?
**A.** 39.68%

**Q.** And the “Hatching rate (%), Replicate 3” value [2]?
**A.** 40.42%

**Q.** And the “Number of unhatched larvae 4 days after insecticide delivery, Replicate 1” value [2]?
**A.** 34

**Q.** And the “Number of unhatched larvae 4 days after insecticide delivery, Replicate 2” value [2]?
**A.** 38

**Q.** What about the “Number of unhatched larvae 4 days after insecticide delivery, Replicate 3” value [2] of the same compound?
**A.** 37
